PubChem BioAssay (NCI)
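Grown in 96-well plates, cells were treated for 48 hours with each compound at five concentrations. Insufficient inhibition: endpoint recorded as highest concentration tested. GI50 is the concentration that inhibits growth by half. Definition used: TGI = concentration required for complete inhibition of growth.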

Experiments:
Assay in all cases: inhibition of tumour cell growth, NCI panel, 48 h
SNB-75 CNS = tested on: SNB-75 CNS
HCT-116 colon = tested on: HCT-116 colon
U251 CNS = tested on: U251 CNS
KM12 colon = tested on: KM12 colon
M14 melanoma = tested on: M14 melanoma
SF-539 CNS = tested on: SF-539 CNS
SF-268 CNS = tested on: SF-268 CNS
UO-31 renal = tested on: UO-31 renal
RXF 393 renal = tested on: RXF 393 renal
COLO 205 colon = tested on: COLO 205 colon
NCI-H226 lung = tested on: NCI-H226 lung
EKVX NSCLC = tested on: EKVX NSCLC
SN12C renal = tested on: SN12C renal
OVCAR-5 ovarian = tested on: OVCAR-5 ovarian
IGROV1 ovarian = tested on: IGROV1 ovarian
MDA-MB-468 breast = tested on: MDA-MB-468 breast
A498 renal = tested on: A498 renal
DU-145 prostate = tested on: DU-145 prostate
K-562 leukemia = tested on: K-562 leukemia
SK-OV-3 ovarian = tested on: SK-OV-3 ovarian
UACC-257 melanoma = tested on: UACC-257 melanoma
RPMI-8226 leukemia = tested on: RPMI-8226 leukemia
786-0 renal = tested on: 786-0 renal
SNB-19 CNS = tested on: SNB-19 CNS
CAKI-1 renal = tested on: CAKI-1 renal
UACC-62 melanoma = tested on: UACC-62 melanoma
MCF7 breast = tested on: MCF7 breast
SK-MEL-28 melanoma = tested on: SK-MEL-28 melanoma
BT-549 breast = tested on: BT-549 breast
A549 NSCLC = tested on: A549 NSCLC
MOLT-4 leukemia = tested on: MOLT-4 leukemia
HCC-2998 colon = tested on: HCC-2998 colon
PC-3 prostate = tested on: PC-3 prostate
ACHN renal = tested on: ACHN renal
SK-MEL-2 melanoma = tested on: SK-MEL-2 melanoma
OVCAR-4 ovarian = tested on: OVCAR-4 ovarian
NCI-H460 lung = tested on: NCI-H460 lung
SK-MEL-5 melanoma = tested on: SK-MEL-5 melanoma
HOP-62 NSCLC = tested on: HOP-62 NSCLC
NCI-H23 lung = tested on: NCI-H23 lung
MALME-3M melanoma = tested on: MALME-3M melanoma
HOP-92 NSCLC = tested on: HOP-92 NSCLC
MDA-MB-231 breast = tested on: MDA-MB-231 breast
CCRF-CEM leukemia = tested on: CCRF-CEM leukemia
HL-60(TB) leukemia = tested on: HL-60(TB) leukemia
MDA-MB-435 = tested on: MDA-MB-435
SR leukemia = tested on: SR leukemia
HCT-15 colon = tested on: HCT-15 colon
TK-10 renal = tested on: TK-10 renal
OVCAR-8 ovarian = tested on: OVCAR-8 ovarian
OVCAR-3 ovarian = tested on: OVCAR-3 ovarian
HT29 colon = tested on: HT29 colon
T-47D breast = tested on: T-47D breast
HS 578T breast = tested on: HS 578T breast
LOX IMVI melanoma = tested on: LOX IMVI melanoma
SW-620 colon = tested on: SW-620 colon
NCI-H522 lung = tested on: NCI-H522 lung
SF-295 CNS = tested on: SF-295 CNS

N#CC1=C(c2cccs2)Nc2c(c(-c3ccccc3)nn2-c2ccccc2)C12C(=O)Nc1ccccc12 (stereo unspecified)
GI50 (SNB-75 CNS): 8.48 µM | TGI (SNB-75 CNS): 30.8 µM | GI50 (HCT-116 colon): 11.9 µM | TGI (HCT-116 colon): 28.1 µM | GI50 (U251 CNS): 6.23 µM | TGI (U251 CNS): 20.6 µM | GI50 (KM12 colon): 5.13 µM | TGI (KM12 colon): 20.4 µM | GI50 (M14 melanoma): 15 µM | TGI (M14 melanoma): 32.7 µM | GI50 (SF-539 CNS): 15.2 µM | TGI (SF-539 CNS): 31.7 µM | GI50 (SF-268 CNS): 18.9 µM | TGI (SF-268 CNS): > 100 µM | GI50 (UO-31 renal): 9.9 µM | TGI (UO-31 renal): > 100 µM | GI50 (RXF 393 renal): 4.91 µM | TGI (RXF 393 renal): 21.1 µM | GI50 (COLO 205 colon): 15.5 µM | TGI (COLO 205 colon): 34.9 µM | GI50 (NCI-H226 lung): 16.9 µM | TGI (NCI-H226 lung): 42.5 µM | GI50 (EKVX NSCLC): 11.2 µM | TGI (EKVX NSCLC): 33.9 µM | GI50 (SN12C renal): 19.6 µM | TGI (SN12C renal): > 100 µM | GI50 (OVCAR-5 ovarian): 19.8 µM | TGI (OVCAR-5 ovarian): 45.6 µM | GI50 (IGROV1 ovarian): 16.2 µM | TGI (IGROV1 ovarian): 34.4 µM | GI50 (MDA-MB-468 breast): 11.4 µM | TGI (MDA-MB-468 breast): 32.4 µM | GI50 (A498 renal): 17.8 µM | TGI (A498 renal): 35.3 µM | GI50 (DU-145 prostate): 20.3 µM | TGI (DU-145 prostate): 46.6 µM | GI50 (K-562 leukemia): 6.17 µM | TGI (K-562 leukemia): 38.9 µM | GI50 (SK-OV-3 ovarian): 13.7 µM | TGI (SK-OV-3 ovarian): 33.2 µM | GI50 (UACC-257 melanoma): 18.1 µM | TGI (UACC-257 melanoma): 48.3 µM | GI50 (RPMI-8226 leukemia): 8.6 µM | TGI (RPMI-8226 leukemia): 83.7 µM | GI50 (786-0 renal): 15.6 µM | TGI (786-0 renal): 31.1 µM | GI50 (SNB-19 CNS): 9.25 µM | TGI (SNB-19 CNS): > 100 µM | GI50 (CAKI-1 renal): 15.7 µM | TGI (CAKI-1 renal): 35 µM | GI50 (UACC-62 melanoma): 13.7 µM | TGI (UACC-62 melanoma): 27.9 µM | GI50 (MCF7 breast): 12.8 µM | TGI (MCF7 breast): 26.5 µM | GI50 (SK-MEL-28 melanoma): 14.9 µM | TGI (SK-MEL-28 melanoma): 29.3 µM | GI50 (BT-549 breast): 5.86 µM | TGI (BT-549 breast): 21 µM | GI50 (A549 NSCLC): 10.2 µM | TGI (A549 NSCLC): 23 µM | GI50 (MOLT-4 leukemia): 12 µM | TGI (MOLT-4 leukemia): 41.1 µM | GI50 (HCC-2998 colon): 14 µM | TGI (HCC-2998 colon): 35.6 µM | GI50 (PC-3 prostate): 8.38 µM | TGI (PC-3 prostate): 24.2 µM | GI50 (ACHN renal): 12.6 µM | TGI (ACHN renal): 26.4 µM | GI50 (SK-MEL-2 melanoma): 15.8 µM | TGI (SK-MEL-2 melanoma): 38.3 µM | GI50 (OVCAR-4 ovarian): 8.25 µM | TGI (OVCAR-4 ovarian): 27 µM | GI50 (NCI-H460 lung): 11.3 µM | TGI (NCI-H460 lung): 24.1 µM | GI50 (SK-MEL-5 melanoma): 13.7 µM | TGI (SK-MEL-5 melanoma): 29.4 µM | GI50 (HOP-62 NSCLC): 17 µM | TGI (HOP-62 NSCLC): 44.1 µM | GI50 (NCI-H23 lung): 12.9 µM | TGI (NCI-H23 lung): 31.8 µM | GI50 (MALME-3M melanoma): 15.9 µM | TGI (MALME-3M melanoma): 30 µM | GI50 (HOP-92 NSCLC): 3.52 µM | TGI (HOP-92 NSCLC): 15 µM | GI50 (MDA-MB-231 breast): 16.4 µM | TGI (MDA-MB-231 breast): 33.8 µM | GI50 (CCRF-CEM leukemia): 7.52 µM | TGI (CCRF-CEM leukemia): 46.8 µM | GI50 (HL-60(TB) leukemia): 5.75 µM | TGI (HL-60(TB) leukemia): 45.6 µM | GI50 (MDA-MB-435): 17.8 µM | TGI (MDA-MB-435): 37.2 µM | GI50 (SR leukemia): 12.7 µM | TGI (SR leukemia): 58.1 µM | GI50 (HCT-15 colon): 8.92 µM | TGI (HCT-15 colon): 24 µM | GI50 (TK-10 renal): 13.6 µM | TGI (TK-10 renal): 31.1 µM | GI50 (OVCAR-8 ovarian): 14.8 µM | TGI (OVCAR-8 ovarian): 29.5 µM | GI50 (OVCAR-3 ovarian): 20.9 µM | TGI (OVCAR-3 ovarian): 73.2 µM | GI50 (HT29 colon): 14 µM | TGI (HT29 colon): 28.3 µM | GI50 (T-47D breast): 18.2 µM | TGI (T-47D breast): 69.2 µM | GI50 (HS 578T breast): 14.4 µM | TGI (HS 578T breast): 44.9 µM | GI50 (LOX IMVI melanoma): 14.4 µM | TGI (LOX IMVI melanoma): 32.4 µM | GI50 (SW-620 colon): 9.57 µM | TGI (SW-620 colon): 28.6 µM | GI50 (NCI-H522 lung): 2.99 µM | TGI (NCI-H522 lung): 15.8 µM | GI50 (SF-295 CNS): 12.8 µM | TGI (SF-295 CNS): 33.3 µM
